Data taken from PubChem BioAssay (NCI).
Where “and” joins values, the source holds several entries; their conditions need not be identical. Equal entries are not always repeated.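 Exposure lasted 48 hours, with cells grown in 96-well plates and compounds tested at five concentrations. GI50 is the concentration that inhibits growth by half. TGI is the concentration that stops growth completely.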

Tests used:
Assay in all cases: NCI-60 cell line screen, 48 h
[1] = test system: A498 renal
[2] = test system: HOP-92 NSCLC
[3] = test system: UACC-257 melanoma
[4] = test system: SF-539 CNS
[5] = test system: RXF 393 renal
[6] = test system: U251 CNS
[7] = test system: SK-MEL-28 melanoma
[8] = test system: HT29 colon
[9] = test system: SF-268 CNS
[10] = test system: EKVX NSCLC

| Compound | GI50 [1] | TGI [1] | GI50 [2] [µM] | TGI [2] [µM] | TGI [3] | GI50 [4] [µM] | TGI [4] [µM] | GI50 [5] [µM] | TGI [5] [µM] | GI50 [6] [µM] | TGI [6] [µM] | GI50 [7] [µM] | TGI [7] [µM] | GI50 [8] [µM] | TGI [8] | GI50 [9] | TGI [9] | GI50 [3] [µM] | TGI [10] [µM] | GI50 [10] [µM] |
| --- | --- | --- | --- | --- | --- | --- | --- | --- | --- | --- | --- | --- | --- | --- | --- | --- | --- | --- | --- | --- |
| CCC1=C[C@@H]2CN(C1)Cc1c([nH]c3ccccc13)[C@@](C(=O)OC)(c1cc3c(cc1OC)N(C)[C@H]1[C@@](O)(C(=O)OC)[C@H](OC(C)=O)[C@]4(CC)[C@@H]5C[C@@H]5CN5CC[C@]31[C@@H]54)C2 | < 0.005 µM and 0.0144 µM | 0.0112 µM and 0.0857 µM | < 0.005 | 0.353 | 7.53 µM and 15.6 µM | 0.0342 | 2.91 | 0.0105 | 11.1 | < 0.005 | 0.671 | < 0.005 | 7.96 | < 0.005 | 0.8 µM and 1.06 µM | < 0.005 µM and 0.0151 µM | 8.94 µM and 12.8 µM | – | – | – |
| C[C@H](Cn1ncnn1)Nc1ncc2cc(Oc3ccc(F)cc3F)c(=O)n(C)c2n1 | > 25 µM | > 25 µM | 3.96 | > 25 | > 25 µM | > 25 | > 25 | > 25 | > 25 | > 25 | > 25 | > 25 | > 25 | > 25 | > 25 µM | > 25 µM | > 25 µM | > 25 | – | – |
| C#CCC(N)(CO)C(=O)O (centres undefined) | – | > 100 µM | – | > 100 | > 100 µM | – | > 100 | – | – | – | > 100 | – | > 100 | – | > 100 µM | – | > 100 µM | – | > 100 | – |
| NC(=O)/C=C/C(=O)O | – | – | – | > 5000 | > 5000 µM | – | > 5000 | – | > 5000 | – | > 5000 | – | > 5000 | – | > 5000 µM | – | > 5000 µM | – | – | – |
| COc1cc2cnc3c4ccccc4ccc3c2cc1OC | – | > 100 µM | – | – | > 100 µM | – | – | – | – | – | > 100 | – | > 100 | – | > 100 µM | – | > 100 µM | – | > 100 | – |
| CC(=O)N[C@H](C(=O)N[C@@H](CCCNC(=N)N)C(=O)N[C@@H](CCCCN)C(=O)N[C@@H](CCCNC(=N)N)C(=O)N[C@]1(C)CCCCCC/C=C\CCC[C@@](C)(C(=O)N[C@@H](CCCNC(=N)N)C(=O)N[C@@H](CCC(=O)O)C(=O)N[C@@H](CC(C)C)C(=O)N[C@H](C(=O)N[C@@H](CCC(=O)O)C(N)=O)C(C)C)NC(=O)[C@H](CCC(N)=O)NC(=O)[C@H](CC(C)C)NC(=O)[C@H](CC(C)C)NC(=O)[C@H](CCCNC(=N)N)NC(=O)[C@H](CCCNC(=N)N)NC(=O)[C@H](CC(C)C)NC1=O)C(C)C | 9.32 µM | 22.4 µM | 1.73 | 8.43 | – | 1.97 | 15.8 | 1.34 | 4.77 | 3.79 | 36.6 | 2.64 | 21.7 | 7.91 | 41.3 µM | 1.47 µM | 4.58 µM | – | 23.2 | 1.75 |
| CSc1c(C)c(C)nn1-c1ccccc1 | – | > 100 µM | – | – | > 100 µM | – | > 100 | – | > 100 | – | > 100 | – | > 100 | – | > 100 µM | – | > 100 µM | – | > 100 | – |
| O=C(O)CCC(NC(=S)S)C(=O)O.[Na+].[Zn+2] (centres undefined) | > 50 µM | > 50 µM | > 50 | > 50 | > 50 µM | > 50 | > 50 | > 50 | > 50 | > 50 | > 50 | > 50 | > 50 | > 50 | > 50 µM | > 50 µM | > 50 µM | > 50 | – | – |
